Experimental data taken from publication PMC5660230, “Combined x-ray crystallography and computational modeling approach to investigate the Hsp90 C-terminal peptide binding to FKBP51” (Scientific Reports, 2017).
“Also recorded” adds a separate entry of the source. Residues, ends and D or L forms follow the SMILES beside them.

What was measured:
FKBP51 (TPR domain) = target: T1, FKBP51 (TPR domain) (Homo sapiens, UniProt Q13451); test: Differential scanning fluorimetry (DSF), dissociation constant of FKBP51-C90 complex under thermal denaturation; assay type: binding
T1 construct: FKBP51 full length DNA (IMAGE cDNA clone: 5753397 5′) was PCR amplified; GST (N, cleaved yes); made in house; host or cells: E. coli BL21
T1 sequence (Q13451 1-457): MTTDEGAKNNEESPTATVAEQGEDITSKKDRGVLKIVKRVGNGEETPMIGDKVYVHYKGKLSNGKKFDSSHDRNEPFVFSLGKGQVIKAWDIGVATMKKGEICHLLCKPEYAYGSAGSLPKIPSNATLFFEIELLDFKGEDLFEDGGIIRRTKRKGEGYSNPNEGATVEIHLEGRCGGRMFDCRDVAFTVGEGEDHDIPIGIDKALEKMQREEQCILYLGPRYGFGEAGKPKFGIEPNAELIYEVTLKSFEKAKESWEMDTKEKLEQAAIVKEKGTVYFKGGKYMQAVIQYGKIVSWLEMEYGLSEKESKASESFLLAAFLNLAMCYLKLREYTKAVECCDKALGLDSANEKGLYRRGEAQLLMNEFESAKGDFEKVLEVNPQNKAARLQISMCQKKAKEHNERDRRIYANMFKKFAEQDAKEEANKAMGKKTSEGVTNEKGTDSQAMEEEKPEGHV
Method: (§1) Differential scanning fluorimetry was performed using Bio-Rad CFX96 qPCR following a well-established protocol. Briefly, 25 µl of solution containing purified FKBP51 at a concentration of 0.1 mg/ml, 5X SYPRO orange (Life Technologies), and Hsp90 C-terminal peptide ranging from 0–500 µM in 0.5X PBS was transferred to a 96-well PCR plate in triplicate. The plate was centrifuged, sealed and the fluorescence was measured using the FRET channel between 20 and 80 °C with an increment of 0.2 °C in each cycle. The melting temperature was determined from the first derivative peaks of the melting curve using Bio-Rad CFX96 manager software. Further, the dissociation constant of the complex between FKBP51 and C90 was determined by fitting the resulting data using single site ligand binding model[35] with the bottom (T1) and top (T2) temperatures fitting to 43.8 and 48.5 °C, respectively. The concentration of FKBP51 (2 µM) was used as the value of the constant P. The fitting was performed using GraphPad Prism, version 7.02. Additionally, we incubated the FKBP51 with 200 µM of control peptide (DDDDDDDDDD) in a similar way.

FKBP51 = test: Differential scanning fluorimetry (DSF), melting temperature shift of FKBP51; assay type: binding, human; conditions: FKBP51 0.1 mg/ml, 5X SYPRO orange, 0.5X PBS
Method: as §1

Row | Compound | Kd (FKBP51 (TPR domain); DSF under thermal denaturation, full-length FKBP51 0.1 mg/ml (2 µM), 5X SYPRO orange, 0.5X PBS, C90 0–250 µM / 0–500 µM (method), triplicate, 20–80 °C, 0.2 °C increments, Tm by first derivative, single site ligand binding model, T1 43.8 and T2 48.5 °C, R^2 0.99) [µM] | dissociation constant compared with reported FKBP38-MEEVD peptide (FKBP51 (TPR domain); DSF value of FKBP51-C90 complex compared with literature value of FKBP38-MEEVD peptide) | ΔTm (first melting point) (FKBP51; C90 250 µM vs 0 µM, triplicate, first derivative of melting curve) [°C] | first melting point of FKBP51 in presence of peptide (FKBP51; C90 250 µM, triplicate, without peptide 44 °C / 43.8 °C) [°C] | second melting point of FKBP51 in presence of peptide (FKBP51; C90 250 µM, triplicate, without peptide 58.6 °C / 57.8 °C) | change in melting point of FKBP51 (control peptide) (FKBP51; control peptide 200 µM vs 0 µM)
1 | CSCC[C@H](NC(=O)[C@H](CCCNC(=N)N)NC(=O)[C@H](CO)NC(=O)[C@@H](NC(=O)[C@H](CC(=O)O)NC(=O)[C@H](Cc1c[nH]cn1)NC(=O)[C@H](Cc1c[nH]cn1)NC(=O)[C@H](Cc1c[nH]cn1)NC(=O)[C@H](Cc1c[nH]cn1)NC(=O)[C@H](Cc1c[nH]cn1)NC(=O)[C@@H](N)Cc1c[nH]cn1)[C@@H](C)O)C(=O)N[C@@H](CCC(=O)O)C(=O)N[C@@H](CCC(=O)O)C(=O)N[C@H](C(=O)N[C@@H](CC(=O)O)C(=O)O)C(C)C [C90] (H-HHHHHHDTSRMEEVD-OH) | 70 ± 32 | very similar to the reported dissociation constant of FKBP38-MEEVD peptide | 4.8 | 48.6 | without much change in the second melting point; also recorded: without affecting the second melting point | –
2 | H-DDDDDDDDDD-OH [control peptide, reference compound] | – | – | – | – | – | did not lead to any change in the melting point of FKBP51
